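Tested at 5 concentrations; 48 h exposure; 96-well plates; endpoints linearly interpolated, else capped at highest concentration. At the GI50, growth is halved.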 The source made the active and inactive calls. Cut-off read from the data, not from the text of the source: active = GI50 up to about 1.1 µM and inactive = higher.
Legend:
Experiment in all cases: NCI tumour cell line growth inhibition, 48 h
[1] = tested on: TK-10
[2] = tested on: Hs-578T
[3] = tested on: NCI-H23
[4] = tested on: A498
[5] = tested on: M14
[6] = tested on: CCRF-CEM
[7] = tested on: SK-OV-3
[8] = tested on: OVCAR-4
[9] = tested on: HCT-15
[10] = tested on: A549
[11] = tested on: K562
[12] = tested on: COLO 205
[13] = tested on: SK-MEL-2
[14] = tested on: HCT-116
[15] = tested on: IGROV-1
[16] = tested on: UACC-257
[17] = tested on: OVCAR-8
[18] = tested on: 786-0
[19] = tested on: SF-268
[20] = tested on: RXF 393
[21] = tested on: KM12
[22] = tested on: NCI-H460
[23] = tested on: SF-539
[24] = tested on: SN12C
[25] = tested on: HCC 2998
[26] = tested on: LOX IMVI
[27] = tested on: SNB-19
[28] = tested on: U-251
[29] = tested on: RPMI-8226
[30] = tested on: NCI-H522
[31] = tested on: MDA-MB-435
[32] = tested on: CAKI-1
[33] = tested on: SF-295
[34] = tested on: MDA-N
[35] = tested on: NCI/ADR-RES
[36] = tested on: HOP-62
[37] = tested on: SW-620
[38] = tested on: MCF7
[39] = tested on: MDA-MB-231
[40] = tested on: ACHN
[41] = tested on: SNB-75
[42] = tested on: MOLT-4
[43] = tested on: HOP-92
[44] = tested on: OVCAR-5
[45] = tested on: DU-145
[46] = tested on: T47D
[47] = tested on: SK-MEL-28
[48] = tested on: OVCAR-3
[49] = tested on: SK-MEL-5
[50] = tested on: HL-60
[51] = tested on: UACC-62
[52] = tested on: BT-549
[53] = tested on: UO-31
[54] = tested on: EKVX
[55] = tested on: Malme-3M
[56] = tested on: HT-29
[57] = tested on: PC-3
[58] = tested on: SR
[59] = tested on: NCI-H226

With `CC(=O)C(C(=O)c1ccc(C)cc1)[C@@H]1OC(C)(C)O[C@@H]1[C@H]1COC(C)(C)O1` (stereo partly drawn) the GI50 [1] was 30.3 µM (inactive), the GI50 [2] was 3.84 µM (inactive) and the GI50 [3] was 9.53 µM (inactive). The GI50 [4] was 36.9 µM (inactive), the GI50 [5] was 11.3 µM (inactive) and the GI50 [6] was 1.27 µM (inactive). For the same compound, the GI50 [7] was 51.2 µM (inactive), the GI50 [8] was 4 µM (inactive) and the GI50 [9] was 8.3 µM. For the same compound, the GI50 [10] was 19.6 µM (inactive), the GI50 [11] was 2.05 µM (inactive) and the GI50 [12] was 18.1 µM (inactive). The GI50 [13] was 8.99 µM (inactive), the GI50 [14] was 3.72 µM (inactive) and the GI50 [15] was 12.7 µM (inactive). The GI50 [16] was 12.4 µM (inactive), the GI50 [17] was 7.26 µM (inactive) and the GI50 [18] was 6.4 µM (inactive). For the same compound, the GI50 [19] was 9.23 µM (inactive), the GI50 [20] was 9.62 µM (inactive) and the GI50 [21] was 4.02 µM (inactive). The GI50 [22] was 25.1 µM (inactive), the GI50 [23] was 5.79 µM (inactive) and the GI50 [24] was 3.97 µM (inactive). The GI50 [25] was 25.1 µM (inactive), the GI50 [26] was 6.43 µM (inactive) and the GI50 [27] was 15.7 µM (inactive). The GI50 [28] was 6.41 µM (inactive), the GI50 [29] was 2.36 µM (inactive) and the GI50 [30] was 4.89 µM (inactive). The GI50 [31] was 9.75 µM (inactive), the GI50 [32] was 21.5 µM (inactive) and the GI50 [33] was 37.7 µM (inactive). For the same compound, the GI50 [34] was 7.21 µM (inactive), the GI50 [35] was 9.93 µM (inactive) and the GI50 [36] was 10.5 µM (inactive). The GI50 [37] was 3.55 µM (inactive), the GI50 [38] was 3.48 µM (inactive) and the GI50 [39] was 10.5 µM (inactive). The GI50 [40] was 9.59 µM (inactive), the GI50 [41] was 13.4 µM (inactive) and the GI50 [42] was 2.61 µM (inactive). The GI50 [43] was 35.2 µM (inactive), the GI50 [44] was 40.9 µM (inactive) and the GI50 [45] was 7.74 µM (inactive). For the same compound, the GI50 [46] was 11.4 µM (inactive), the GI50 [47] was 20.8 µM (inactive) and the GI50 [48] was 7.66 µM (inactive). For the same compound, the GI50 [49] was 12.1 µM (inactive), the GI50 [50] was 1.67 µM (inactive) and the GI50 [51] was 10.9 µM (inactive). The GI50 [52] was 15 µM (inactive), the GI50 [53] was 12.7 µM (inactive) and the GI50 [54] was 23.9 µM (inactive). The GI50 [55] was 15.9 µM (inactive), the GI50 [56] was 5.21 µM (inactive) and the GI50 [57] was 8.57 µM (inactive).

For `Cn1c2ccccc2c(=S)c2cc(NC(=O)CCCCC(=O)Nc3ccc4c(c3)c(=S)c3ccccc3n4C)ccc21`, the GI50 [1] was > 100 µM (inactive), the GI50 [2] was > 100 µM (inactive) and the GI50 [3] was > 100 µM (inactive). For the same compound, the GI50 [4] was > 100 µM (inactive), the GI50 [5] was > 100 µM (inactive) and the GI50 [6] was > 100 µM (inactive). The GI50 [7] was > 100 µM (inactive), the GI50 [9] was over 100 µM and the GI50 [10] was > 100 µM (inactive). The GI50 [11] was > 100 µM (inactive), the GI50 [12] was > 100 µM (inactive) and the GI50 [13] was > 100 µM (inactive). For the same compound, the GI50 [14] was > 100 µM (inactive), the GI50 [15] was > 100 µM (inactive) and the GI50 [16] was > 100 µM (inactive). The GI50 [17] was 34.3 µM (inactive), the GI50 [18] was 72.1 µM (inactive) and the GI50 [19] was > 100 µM (inactive). For the same compound, the GI50 [20] was > 100 µM (inactive), the GI50 [21] was > 100 µM (inactive) and the GI50 [22] was > 100 µM (inactive). The GI50 [23] was > 100 µM (inactive), the GI50 [24] was > 100 µM (inactive) and the GI50 [25] was > 100 µM (inactive). The GI50 [26] was > 100 µM (inactive), the GI50 [27] was > 100 µM (inactive) and the GI50 [28] was 55.8 µM (inactive). For the same compound, the GI50 [29] was > 100 µM (inactive), the GI50 [30] was > 100 µM (inactive) and the GI50 [31] was > 100 µM (inactive). For the same compound, the GI50 [32] was > 100 µM (inactive), the GI50 [33] was > 100 µM (inactive) and the GI50 [34] was > 100 µM (inactive). For the same compound, the GI50 [58] was > 100 µM (inactive), the GI50 [35] was > 100 µM (inactive) and the GI50 [36] was 54.7 µM (inactive). The GI50 [37] was > 100 µM (inactive), the GI50 [38] was > 100 µM (inactive) and the GI50 [39] was 65.9 µM (inactive). For the same compound, the GI50 [40] was > 100 µM (inactive), the GI50 [41] was 54 µM (inactive) and the GI50 [42] was > 100 µM (inactive). For the same compound, the GI50 [43] was > 100 µM (inactive), the GI50 [44] was > 100 µM (inactive) and the GI50 [45] was > 100 µM (inactive). For the same compound, the GI50 [46] was > 100 µM (inactive), the GI50 [47] was > 100 µM (inactive) and the GI50 [48] was > 100 µM (inactive). For the same compound, the GI50 [49] was > 100 µM (inactive), the GI50 [51] was > 100 µM (inactive) and the GI50 [52] was > 100 µM (inactive). The GI50 [53] was > 100 µM (inactive), the GI50 [59] was > 100 µM (inactive) and the GI50 [54] was > 100 µM (inactive). The GI50 [56] was > 100 µM (inactive) and the GI50 [57] was > 100 µM (inactive).

— ChEMBL document CHEMBL1201862, “PubChem BioAssay data set” (2004)
